The nature of data set [1]: Inhibition of full length human ABCB1 expressed in Flp-In-293 cells assessed as potentiation of paclitaxel-induced cytotoxicity by measuring paclitaxel IC50 at 8 uM after 72 hrs by SRB assay (Rvb = 644.78 +/- 2.6 nM).
The nature of data set [2]: Inhibition of full length human ABCB1 expressed in Flp-In-293 cells assessed as potentiation of vincristine-induced cytotoxicity by measuring vincristine IC50 at 8 uM after 72 hrs by SRB assay (Rvb = 823.13 +/- 15.79 nM).
The nature of data set [3]: Inhibition of full length human ABCB1 expressed in Flp-In-293 cells assessed as potentiation of paclitaxel-induced cytotoxicity by measuring paclitaxel IC50 at 10 uM after 72 hrs by SRB assay (Rvb = 644.78 +/- 2.6 nM).
Data set [4] in a line: Inhibition of full length human ABCB1 expressed in Flp-In-293 cells assessed as potentiation of doxorubicin-induced cytotoxicity by measuring doxorubicin IC50 at 10 uM after 72 hrs by SRB assay (Rvb = 914.83 +/- 15.85 nM).
Data set [5] can be described thus: Inhibition of full length human ABCB1 expressed in Flp-In-293 cells assessed as potentiation of vincristine-induced cytotoxicity by measuring vincristine IC50 at 10 uM after 72 hrs by SRB assay (Rvb = 823.13 +/- 15.79 nM).
Data set [6] in a line: Inhibition of full length human ABCB1 expressed in Flp-In-293 cells assessed as potentiation of doxorubicin-induced cytotoxicity by measuring doxorubicin IC50 at 8 uM after 72 hrs by SRB assay (Rvb = 914.83 +/- 15.85 nM).
Data set [7] is described as follows: Inhibition of ABCB1 in human KBVIN cells assessed as potentiation of vincristine-induced cytotoxicity by measuring vincristine IC50 at 8 uM after 72 hrs by SRB assay (Rvb = 2867.34 +/- 142.36 nM).
Data set [8] can be described thus: Inhibition of ABCB1 in human KBVIN cells assessed as potentiation of paclitaxel-induced cytotoxicity by measuring paclitaxel IC50 at 10 uM after 72 hrs by SRB assay (Rvb = 1196.09 +/- 44.8 nM).
Data set [9] can be described thus: Inhibition of ABCB1 in human KBVIN cells assessed as potentiation of vincristine-induced cytotoxicity by measuring vincristine IC50 at 10 uM after 72 hrs by SRB assay (Rvb = 2867.34 +/- 142.36 nM).
Data set [10] is described as follows: Inhibition of ABCB1 in human KBVIN cells assessed as potentiation of paclitaxel-induced cytotoxicity by measuring paclitaxel IC50 at 8 uM after 72 hrs by SRB assay (Rvb = 1196.09 +/- 44.8 nM).

Turning to `COc1ccc(-c2coc3c(c(O)cc4occ(-c5ccc(OC)cc5)c(=O)c43)c2=O)cc1`, the IC50 in data set [1] is 303 nM; in [2] it was 577 nM; in data set [3], 79 nM; in data set [4], 544 nM; in data set [5], 500 nM; in data set [6], 576 nM.

For the compound `COc1ccc(-c2coc3c(c(O)cc4occ(-c5ccc(OC)c(OC)c5)c(=O)c43)c2=O)cc1OC`, the IC50 worked out at 73 nM in [1]; 203 nM in data set [2]; 68 nM in data set [3]; 594 nM in [4]; 85 nM in data set [5]; 597 nM in data set [6].

For `Cc1cccc(-c2coc3c(c(O)cc4occ(-c5cccc(C)c5)c(=O)c43)c2=O)c1`, the IC50 amounted to 60 nM in [1]; 390 nM in data set [7]; 53 nM in data set [2]; 52 nM in data set [8]; 40 nM in [3]; 586 nM in [4]. The IC50 in [5] amounted to 39 nM; in data set [9], 96 nM; in data set [10], 63 nM; in data set [6], 664 nM.

The record behind these values is BindingDB's records for doi:10.1016/j.ejmech.2016.03.070 (China Medical University, 2016).
